Reference: patent publication US12637719B2, “Panel of ER regulated genes for use in monitoring endocrine therapy in breast cancer” (Sanofi, priority 2020, dated 2026)
Entries after “also recorded” stand apart in the source; their conditions may differ.

Tests used:
[1] = test system: ERα target genes CXCL12 and BCAS1; assay: RT-qPCR of ERα target genes CXCL12 and Bcas1 in HCC1428-LTED cells; type: cell-based; settings: for expression of CXCL12 by RT-qPCR: FIG. 1C; for expression of Bcas1 by RT-qPCR: FIG. 1D
Method: RNA was extracted using the RNeasy kit (Qiagen) per the manufacturers instruction, quantified by NanoDrop 8000 (ThermoScientific) and reverse-transcribed with cDNA archive kit (Applied Biosystems). Taqman gene expression assays (Applied Biosystems) were used to quantify PGR (Hs00172183_m1), Bcas 1 (Hs00952822_m1), CXCL12 (Hs03676656_mH), BLNK1(Hs00929914_m1), IL20 (Hs00218888_m1) and the house-keeping genes PGK (Hs00391480_m1) and GAPDH (Hs99999905 ml) The relative quantities were determined using ΔΔ threshold cycle (ΔΔCt), according to the manufacturer's instructions (Applied Biosystems).
(§1) To evaluate the ER modulation by amcenestrant and other SERDs, we treated HCC1428-LTED (long term estrogen deprived) breast cancer cell lines with SERD compounds at either 300 nM (high) or 30 nM (low) in 24 hours. To unmask the ER-intrinsic activity, we then evaluated gene expression after compound treatment in HCC1428-LTED cells, which is a cell line that is hormone-deprived. Changes in global mRNA expression were assessed 24 hours post treatment.
Findings were confirmed by measuring the expression of two well-validated ER target genes, CXCL12 and BCAS1, by RT-qPCR. Gene expression analysis provided further confirmation of the differential response of these molecules on well-validated ERα target genes (Elife. 2016; 5, Endocr Relat Cancer. 2015; 22(5):713-24).

HCC1428-LTED cells = assay: Global mRNA expression profile similarity between SERDs (1022 differentially expressed genes, Pearson correlation); type: cell-based; settings: 24 hours post treatment, 1022 transcripts, FIG. 1A, FIG. 3
Method: An RNA-seq library of 96 SERD RNA samples was prepared using a kit from NuGen Ovation® Universal RNA-Seq System Method (Illumina® Platforms) conforming to the manufacturer's protocol. The 50 bp rapid single-read flow cell was used to sequence the library on the Illumina HiSeq 2500 in the rapid mode. […] TPM was calculated as calculated measured as an expression unit and then quantile-normalized and log 2-transformed. […] ER-regulated genes were identified using two comparisons. First, genes were identified that were modulated by one or more SERM or SERD compounds in Table 1 and modulated in the opposite direction by estradiol ([log 2 FC]>2 and FDR<0.05 vs. DMSO control). To identify genes that are differentially expressed between SERD compound treatment and dimethyl sulfoxide (DMSO; control) treatment groups, a two-factor (treatment and dose) analysis of variance (ANOVA) model was used at respective dose and time points. The treatment factor was fixed, with seven levels: six SERD compounds and the DMSO control. The dose factor was also fixed, with two levels: low and high. All samples were treated at 24h. Post hoc contrast analyses were performed at each dose and time level, between each SERD compound treatment and the DMSO control. […] This analysis was performed using Array Studio (Qiagen). […] Expression profile similarity between compounds was assessed by Pearson correlation on the differentially expressed genes.
as §1

[2] = test system: ERα transcriptional activity in HCC1428-LTED cells; assay: ER activity score (GSVA on 87-gene ER signature, RNA-seq) in HCC1428-LTED cells; type: cell-based; settings: for ER activity score / ERα transcriptional activity (GSVA on ER signature): 300 nM (high) or 30 nM (low), 24 hours, absence of exogenous estrogen, FIG. 1B
Method: The term “ER activity score,” as used herein, refers to a score obtained by using a computational method such as GSVA (Hanzelmann et al., GSVA: gene set variation analysis for microarray and RNA-seq data, in BMC Bioinformatics, 2013; 14:7, incorporated herein by reference in its entirety for its description of calculating scores using the GSVA method) on a gene expression data set obtained from a biological sample. An E2-induced score and an E2-suppressed score are calculated individually. […] The ER activity score is computed as follows: ER Activity Score=ER-induced score−E2-suppressed score.
An RNA-seq library of 96 SERD RNA samples was prepared using a kit from NuGen Ovation® Universal RNA-Seq System Method (Illumina® Platforms) conforming to the manufacturer's protocol. The 50 bp rapid single-read flow cell was used to sequence the library on the Illumina HiSeq 2500 in the rapid mode. […] TPM was calculated as calculated measured as an expression unit and then quantile-normalized and log 2-transformed. […] ER-regulated genes were identified using two comparisons. First, genes were identified that were modulated by one or more SERM or SERD compounds in Table 1 and modulated in the opposite direction by estradiol ([log 2 FC]>2 and FDR<0.05 vs. DMSO control). To identify genes that are differentially expressed between SERD compound treatment and dimethyl sulfoxide (DMSO; control) treatment groups, a two-factor (treatment and dose) analysis of variance (ANOVA) model was used at respective dose and time points. The treatment factor was fixed, with seven levels: six SERD compounds and the DMSO control. The dose factor was also fixed, with two levels: low and high. All samples were treated at 24h. Post hoc contrast analyses were performed at each dose and time level, between each SERD compound treatment and the DMSO control. […] This analysis was performed using Array Studio (Qiagen). The panel of 1022 genes identified as differentially expressed in at least one compound-versus-DMSO comparison were used for hierarchical clustering of compound treatment data normalized to DMSO control at respective dose and time points. Complete-linkage clustering was performed based on Pearson correlation coefficients. Expression profile similarity between compounds was assessed by Pearson correlation on the differentially expressed genes.
as §1
(§2) To assess the relative ER modulating activity of the compounds, a panel of ER regulated genes (87 genes, Table 3) was developed by transcriptional profiling of multiple cell lines to identify genes that were modulated by estradiol and then blocked by SERM and SERD. This panel of ER regulated genes can be used to measure ER modulation by SERMs and SERDs. An ER Activity Score was then assessed using gene set variation analysis (GSVA) on the ER Signature (BMC Bioinformatics. 2013; 14:7).

[3] = test system: ERα signaling in HCI013 PDX tumor model; assay: ER activity score (GSVA, 87-gene signature) in HCI013 PDX tumor model; type: in vivo, human; settings: 8 h after last administration; SAR439859 100 mg/kg QD, GDC0810 100 mg/kg QD; FIG. 4B
Method: FIGS. 4A-B. Evaluation of target gene modulation in ERα ligands in an endocrine therapy-resistant tumor model. […] Data represent mean and standard deviation for 3 replicates for CXCL12 gene expression. An ER Signature of 87 genes was that were modulated by estradiol and then blocked by SERM and SERD compounds was used to calculate the ER Activity Score and was assessed using gene set variation analysis (GSVA). Data represents the mean and deviation from the mean for each of the described treatments.
as §2
The ERα transcriptional activity was analyzed in the HCI013 model using the panel of genes corresponding to the ER gene signature derived from the in vitro cell line analysis as previously described.

ER pathway = assay: ER activation score by GSVA (RNA-seq) in paired tumor biopsies, Phase 1/2 study; type: in vivo, human
Ki67 = assay: IHC Ki67 protein expression (percent positive tumor cells) in paired tumor biopsies, Phase 1/2 study; type: in vivo, human; settings: screening to Cycle 2, Day 28; 400 mg PO QD; n=7; range −30% to +30%; FIG. 6C
Method: Staining was evaluated in tumor cells only. For ER and PgR expression, H-scores were calculated.

[4] = test system: ERα target genes PGR and CXCL12 in HCI013 tumors; assay: RT-qPCR of PGR and CXCL12 in HCI013 PDX tumors; type: in vivo, human
Method: FIG. 2. […] For FIG. 2 *P<0.05; denotes significance compared to vehicle treated group at end of study using unpaired t test. FIGS. 4A-B. Evaluation of target gene modulation in ERα ligands in an endocrine therapy-resistant tumor model. […] Data represent mean and standard deviation for 3 replicates for CXCL12 gene expression. An ER Signature of 87 genes was that were modulated by estradiol and then blocked by SERM and SERD compounds was used to calculate the ER Activity Score and was assessed using gene set variation analysis (GSVA). Data represents the mean and deviation from the mean for each of the described treatments. RNA was extracted using the RNeasy kit (Qiagen) per the manufacturers instruction, quantified by NanoDrop 8000 (ThermoScientific) and reverse-transcribed with cDNA archive kit (Applied Biosystems). Taqman gene expression assays (Applied Biosystems) were used to quantify PGR (Hs00172183_m1), Bcas 1 (Hs00952822_m1), CXCL12 (Hs03676656_mH), BLNK1(Hs00929914_m1), IL20 (Hs00218888_m1) and the house-keeping genes PGK (Hs00391480_m1) and GAPDH (Hs99999905 ml) The relative quantities were determined using ΔΔ threshold cycle (ΔΔCt), according to the manufacturer's instructions (Applied Biosystems).

Compound | expression of CXCL12 by RT-qPCR [1] | expression of Bcas1 by RT-qPCR [1] | correlation of induced expression profile to that of fulvestrant (HCC1428-LTED cells) | ER activity score / ERα transcriptional activity (GSVA on ER signature) [2] | ER activity score / ERα transcriptional activity (GSVA on ER signature) ([2]; listed as fulvestrant) | modulation of ERα intrinsic activity in the absence of E2 (inverse agonist activity) [2] | ERα transcriptional activity (ER activity score) in HCI013 model [3] | ER activation score by GSVA, median change from screening (ER pathway; all patients with paired biopsies, n=5, range −1.1 to +0.4, FIG. 6D) | ER activation score by GSVA, median change from screening, patients who showed clinical benefit (ER pathway; patients with clinical benefit, n=4, range −1.1 to 0) | ER activation score by GSVA, change from screening, patient with no clinical benefit (ER pathway; the one patient with no clinical benefit) | median change from screening in percentage of Ki67 positive cells (Ki67) [%] | CXCL12 gene expression in HCI013 tumors (RT-qPCR) ([4]; 8 h after last administration, SAR439859 100 mg/kg QD compared to fulvestrant 200 mg/kg Q2W or GDC0810 100 mg/kg QD, FIG. 4A) | PGR gene expression in HCI013 tumors (RT-qPCR) ([4]; 8 hours after last administration, SAR439859 100 mg/kg compared to fulvestrant 200 mg/kg or GDC0810 100 mg/kg, FIG. 2)
C[C@@H]1Cc2c([nH]c3ccccc23)[C@@H](c2c(F)cc(/C=C/C(=O)O)cc2F)N1CC(C)(C)F [AZD9496] | failed to elicit any significant change | failed to elicit any significant change | only weakly correlated | only partially reduced; also recorded: only partially inhibited | – | – | – | – | – | – | – | – | –
C[C@]12CC[C@@H]3c4ccc(O)cc4C[C@@H](CCCCCCCCC[S+]([O-])CCCC(F)(F)C(F)(F)F)[C@H]3[C@@H]1CC[C@@H]2O (stereo partly drawn) [Fulvestrant] | – | – | – | deep inhibition | strongly reduced | profound modulation | – | – | – | – | – | – | –
CC/C(=C(/c1ccc(/C=C/C(=O)O)cc1)c1ccc2[nH]ncc2c1)c1ccc(F)cc1Cl [GDC-0810] | failed to elicit any significant change | failed to elicit any significant change | only weakly correlated | only partially reduced; also recorded: only partially inhibited | – | – | suppressive activity | – | – | – | – | – | –
O=C(O)c1ccc2c(c1)CCCC(c1ccc(Cl)cc1Cl)=C2c1ccc(O[C@H]2CCN(CCCF)C2)cc1 [SAR439859, 6-(2,4-dichlorophenyl)-5-[4-[(3S)-1-(3-fluoropropyl)pyrrolidin-3-yl]oxyphenyl]-8,9-dihydro-7H-benzo[7]annulene-2-carboxylic acid] | inhibited expression | induced expression | closely correlated | strongly reduced; also recorded: deep inhibition | – | profound modulation | more marked ERα suppression | −0.4 | −0.6 | +0.4 | −8 | stronger inhibition | stronger inhibition
